Source: US6737383B1, “Herbicidal oxadiazolidines” (priority 1999, dated 2004)

Experiments:
pigweed = experiment: Test B pre/postemergence pigweed; type: in vivo, Amaranthus retroflexus; details: for Redroot pigweed plant response rating: scale of 0 to 10 where 0 is no effect and 10 is complete control
How it was run: (§1)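 Test chemicals in a non-phytotoxic solvent mixture with surfactant were sprayed preemergence onto planted seeds and postemergence onto plants 2 to 18 cm tall (1- to 4-leaf stage). After twelve to sixteen days in a greenhouse, injury was visually rated against untreated controls from 0 (no effect) to 10 (complete control).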

bedstraw = experiment: Test B pre/postemergence bedstraw; type: in vivo, Galium aparine; details: for Bedstraw plant response rating: scale of 0 to 10 where 0 is no effect and 10 is complete control
How it was run: as §1

smallflower flatsedge = experiment: Test B flood test smallflower flatsedge; type: in vivo, Cyperus difformis
How it was run: (§2)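 Each value is a visual injury score relative to controls, with 10 meaning complete control and 0 no effect. Evaluation took place twelve to sixteen days after the 2-leaf-stage plants were treated and kept in the greenhouse.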

blackgrass = experiment: Test B pre/postemergence blackgrass; type: in vivo, Alopecurus myosuroides; details: for Blackgrass plant response rating: scale of 0 to 10 where 0 is no effect and 10 is complete control
How it was run: as §1

morningglory = experiment: Test B pre/postemergence morningglory; type: in vivo, Ipomoea hederacea; details: for Morningglory plant response rating: scale of 0 to 10 where 0 is no effect and 10 is complete control
How it was run: as §1

soybean = experiment: Test B pre/postemergence soybean; type: in vivo, Glycine max; details: for Soybean plant response rating: scale of 0 to 10 where 0 is no effect and 10 is complete control
How it was run: as §1

crabgrass = experiment: Test B pre/postemergence crabgrass; type: in vivo, Digitaria sanguinalis; details: for Crabgrass plant response rating: scale of 0 to 10 where 0 is no effect and 10 is complete control
How it was run: as §1

duck salad = experiment: Test B flood test duck salad; type: in vivo, Heteranthera limosa
How it was run: as §2

surinam grass = experiment: Test B pre/postemergence surinam grass; type: in vivo, Brachiaria decumbens; details: Postemergence, Rate 125 g/ha; scale 0 to 10, 0 is no effect, 10 is complete control
How it was run: as §1

[1] = Postemergence, Rate 125 g/ha, scale 0 to 10, 0 is no effect, 10 is complete control
[2] = Postemergence, Rate 250 g/ha, scale 0 to 10, 0 is no effect, 10 is complete control
[3] = Preemergence, Rate 62 g/ha, scale 0 to 10 (0 no effect, 10 complete control)
[4] = Rate 500 g/ha, Postemergence, scale 0 to 10, 0 no effect, 10 complete control
[5] = Postemergence (flood test), Rate 125 g/ha, scale 0 to 10, 0 is no effect, 10 is complete control
[6] = Rate 62 g/ha, Postemergence (flood test species), scale of 0 to 10 where 0 is no effect and 10 is complete control
[7] = Rate 500 g/ha, listed under Postemergence (flood test species), scale 0 to 10, 0 no effect, 10 complete control
[8] = flood test species, listed under Postemergence, Rate 250 g/ha, scale 0 to 10, 0 is no effect, 10 is complete control

With `CCN(CC)C(=O)n1oc(=O)n(-c2ccccc2C)c1=O` [Compound 364] the “Plant response rating, Redroot pigweed” value (pigweed; [1]) was 0, the “Plant response rating, Redroot pigweed” value (pigweed; [2]) was 0 and the “Plant response rating, Redroot pigweed” value (pigweed; [3]) was 0. For the same molecule, the “Redroot pigweed plant response rating (0 to 10 scale)” value (pigweed; Preemergence, Rate 125 g/ha) was 0, the “Redroot pigweed plant response rating” value (pigweed; Preemergence, Rate 250 g/ha) was 0 and the “Redroot pigweed plant response rating” value (pigweed; Preemergence, Rate 500 g/ha) was 0. For the same molecule, the “Redroot pigweed plant response rating” value (pigweed; Rate 62 g/ha, Postemergence) was 0, the “Plant response rating, Redroot pigweed” value (pigweed; [4]) was 0 and the “Plant response rating, Bedstraw” value (bedstraw; [1]) was 0. The “Plant response rating, Bedstraw” value (bedstraw; [2]) was 0, the “Plant response rating, Bedstraw” value (bedstraw; [3]) was 0 and the “Bedstraw plant response rating (0 to 10 scale)” value (bedstraw; Preemergence, Rate 125 g/ha) was 0. The “Bedstraw plant response rating” value (bedstraw; Preemergence, Rate 250 g/ha) was 0, the “Bedstraw plant response rating” value (bedstraw; Preemergence, Rate 500 g/ha) was 3 and the “Bedstraw plant response rating” value (bedstraw; Rate 62 g/ha, Postemergence) was 0. For the same molecule, the “Plant response rating, Bedstraw” value (bedstraw; [4]) was 0, the “Plant response rating, S. Flatsedge” value (smallflower flatsedge; [5]) was 0 and the “S. Flatsedge plant response rating” value (smallflower flatsedge; [6]) was 0. The “Plant response rating, S. Flatsedge” value (smallflower flatsedge; [7]) was 3, the “Plant response rating, S. Flatsedge” value (smallflower flatsedge; [8]) was 0 and the “Plant response rating, Blackgrass” value (blackgrass; [1]) was 0. The “Plant response rating, Blackgrass” value (blackgrass; [2]) was 0, the “Plant response rating, Blackgrass” value (blackgrass; [3]) was 0 and the “Blackgrass plant response rating (0 to 10 scale)” value (blackgrass; Preemergence, Rate 125 g/ha) was 0. The “Blackgrass plant response rating” value (blackgrass; Preemergence, Rate 250 g/ha) was 1, the “Blackgrass plant response rating” value (blackgrass; Preemergence, Rate 500 g/ha) was 4 and the “Blackgrass plant response rating” value (blackgrass; Rate 62 g/ha, Postemergence) was 0. For the same molecule, the “Plant response rating, Blackgrass” value (blackgrass; [4]) was 2, the “Plant response rating, Morningglory” value (morningglory; [1]) was 0 and the “Plant response rating, Morningglory” value (morningglory; [2]) was 0. For the same molecule, the “Plant response rating, Morningglory” value (morningglory; [3]) was 0, the “Morningglory plant response rating (0 to 10 scale)” value (morningglory; Preemergence, Rate 125 g/ha) was 0 and the “Morningglory plant response rating” value (morningglory; Preemergence, Rate 250 g/ha) was 0. The “Morningglory plant response rating” value (morningglory; Preemergence, Rate 500 g/ha) was 0, the “Morningglory plant response rating” value (morningglory; Rate 62 g/ha, Postemergence) was 0 and the “Plant response rating, Morningglory” value (morningglory; [4]) was 4. The “Plant response rating, Soybean” value (soybean; [1]) was 2, the “Plant response rating, Soybean” value (soybean; [2]) was 3 and the “Plant response rating, Soybean” value (soybean; [3]) was 0. The “Soybean plant response rating (0 to 10 scale)” value (soybean; Preemergence, Rate 125 g/ha) was 0, the “Soybean plant response rating” value (soybean; Preemergence, Rate 250 g/ha) was 0 and the “Soybean plant response rating” value (soybean; Preemergence, Rate 500 g/ha) was 0. For the same molecule, the “Soybean plant response rating” value (soybean; Rate 62 g/ha, Postemergence) was 0, the “Plant response rating, Soybean” value (soybean; [4]) was 3 and the “Plant response rating, Crabgrass” value (crabgrass; [1]) was 0. For the same molecule, the “Plant response rating, Crabgrass” value (crabgrass; [2]) was 0, the “Plant response rating, Crabgrass” value (crabgrass; [3]) was 0 and the “Crabgrass plant response rating (0 to 10 scale)” value (crabgrass; Preemergence, Rate 125 g/ha) was 0. The “Crabgrass plant response rating” value (crabgrass; Preemergence, Rate 250 g/ha) was 2, the “Crabgrass plant response rating” value (crabgrass; Preemergence, Rate 500 g/ha) was 5 and the “Crabgrass plant response rating” value (crabgrass; Rate 62 g/ha, Postemergence) was 0. The “Plant response rating, Crabgrass” value (crabgrass; [4]) was 2, the “Plant response rating, Ducksalad” value (duck salad; [5]) was 0 and the “Ducksalad plant response rating” value (duck salad; [6]) was 0. The “Plant response rating, Ducksalad” value (duck salad; [7]) was 0, the “Plant response rating, Ducksalad” value (duck salad; [8]) was 0 and the “Plant response rating, B. signalgrass” value (surinam grass) was 0.
